Several values for one entry are separate records, joined by “and”; a condition that tells them apart may be missing. Equal values may be shown once. Activity calls are given as the source filed them. No rule for the calls is given here.
Assay: SKN7 mediated toxicity in Saccharomyces cerevisiae, growth rescue counterscreen, dose confirmation (AID 624258);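 also: growth read after three days of incubation at 30 °C; 0% = median of neutral control wells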
Conditions: S. cerevisiae SKN7-toxicity growth rescue, plate reader

SMILES	growth rescue activity (at 19.5 µM (top of the series))	also measured
O=c1cc(CSc2ccc(Cl)cc2)nc(-c2ccccn2)[nH]1	-48.1% (inactive)	–
C[C@]12CC[C@H](O)CC1=CCC1C2CC[C@@]2(C)C1CC[C@@H]2NC(=O)[C@@H](N)Cc1cnc[nH]1 (some centres not stated)	26.3% (inactive)	–
COc1ccc(/C=N/Nc2cc(C)nc(-n3nc(C)cc3C)n2)cc1	-51.9% (inactive)	–
C[C@]12CC[C@H](O)CC1=CCC1C2CC[C@@]2(C)C1CC[C@@H]2NC(=O)[C@@H](N)Cc1ccccc1 (some centres not stated)	15.7% (inactive)	–
O=C1C=C(NCc2ccccc2)c2ccccc2C1=O	41.7% (inactive)	–
CCCc1c(C)nn(C(=O)/C(C#N)=N/Nc2ccccc2[N+](=O)[O-])c1C	-8.75% (inactive)	–
Cn1cncc1C#Cc1c(-c2ccsc2)sc2ccccc12	-77.3% (inactive)	–
Clc1ccc(-c2n[nH]c3c2CCC3)cc1Cl	-54.5% (inactive)	–
Cc1nc2c(o1)C(=O)c1ccccc1C2=Nc1ccccc1	-29.5% (inactive)	–
O=C1C(Nc2ccccc2)=C/C(=N/S(=O)(=O)c2cccs2)c2ccccc21	-8.54% (inactive)	–
CCN(CC)C(=O)C1CCCc2c1[nH]c1ccc(Cl)cc21 (configuration not stated)	-45% (inactive)	–
CC1(C)C=Cc2c(ccc3c2OC[C@@H](c2ccc(O)cc2O)C3)O1	-92.6% (inactive)	–
O=C(COc1ccc([N+](=O)[O-])cc1)Nc1nc(-c2ccccn2)cs1	-63.6% (inactive)	–
CN1CCN(C(c2ccccn2)c2cc(Cl)c3cccnc3c2O)CC1 (configuration not stated)	-64.1% (inactive)	–
O=c1c2ccccc2nc(-c2ccc(-c3ccccc3)cc2)n1-c1ccncc1	-56.1% (inactive)	–
Cc1ccc(C)c(/C=C/C(=O)c2ccccc(=O)c2O)c1	-77% (inactive)	–
N#Cc1c(-c2cccc([N+](=O)[O-])c2)nc2n(c1=O)CCS2	1.05% (inactive)	–
COc1ccc(S(=O)(=O)Nc2cc(SCC(=O)O)c(O)c3ccccc23)cc1	4.66% (inactive)	–
CC1(C)C(C=C(Cl)Cl)C1C(=O)N1CCN(c2ccccc2)CC1 (configuration not stated)	6.49% (inactive)	–
CCOC(=O)c1c2c(n(-c3ccc(OC)cc3)c1C)C(=O)C(=O)c1ccccc1-2	-68% (inactive)	–
Oc1ccc(/C=N/Nc2ccc(C(F)(F)F)cn2)c(O)c1	-73.7% (inactive)	–
O=[N+]([O-])c1ccc(S(=O)Cc2ccccc2)c([N+](=O)[O-])c1 (configuration not stated)	-45.8% (inactive)	–
COc1cc2c(c(OC)c1OC)-c1ccc(O)c(=O)cc1[C@@H](NC(C)=O)CC2	-29.6% (inactive)	–

SMILES	growth rescue activity (at 19.5 µM (top of the series))	also measured
Oc1c(C(Nc2cccc(C(F)(F)F)c2)c2ccncc2)ccc2cccnc12 (configuration not stated)	-60.6% (inactive)	–
O=C(CCNS(=O)(=O)c1ccc(Br)s1)N1CCN(c2ccccc2)CC1	-25.4% (inactive)	–
Cc1oc2c(c1C(=O)c1ccccc1)C(=O)C(=O)c1ccccc1-2	16.8% (inactive)	–
Oc1c(I)cc(Cl)c2cccnc12	-81.1% (inactive)	–
CCOC(=O)C1CCCN(C(=O)c2cc(-c3ccc(C)cc3)nc3ccccc23)C1 (configuration not stated)	25.9% (inactive)	–
C[n+]1c2cc(N)ccc2cc2ccc(N)cc21	-24.4% (inactive) and -10% (inactive)	–
Cc1ccccc1C(=O)NNC(=S)NC(=O)c1ccc(Cl)cc1Cl	-23.2% (inactive)	–
O=C(c1cc([N+](=O)[O-])cc([N+](=O)[O-])c1)N(Cc1nnc(-c2ccccc2Cl)o1)C1CC1	–	growth rescue activity (at 6.8 µM (top of the series)): -38% (inactive)
O=C(Nc1cc(Oc2ccc(Cl)cc2)cc([N+](=O)[O-])c1)c1ccco1	-42.9% (inactive)	–
FC(F)(F)Oc1ccc(NC(=S)Nc2ccc(OC(F)(F)F)cc2)cc1	26% (inactive)	–
O=C1C=C(N(CCO)Cc2ccccc2)c2ccccc2C1=O	12.2% (inactive)	–
O=C(C1COc2ccccc2O1)N1CCN(c2ccccc2Cl)CC1 (configuration not stated)	-13% (inactive)	–
CCCCCCC(Cl)(Cn1ccnc1)c1ccccc1 (configuration not stated)	-69.6% (inactive)	–
CCCCCCCCCCSc1n[nH]c(N)n1	-93.1% (inactive)	–
Cc1c(C(=O)O)cccc1-c1ccc(/C=N/Nc2ccc(Br)cc2)o1	-92.6% (inactive)	–
COc1ccc(N/N=C(\C#N)C(N)=O)cc1	-58.5% (inactive)	–
C[C@]12CCC(=O)C=C1CCC1C2CC[C@@]2(C)C1CC[C@]2(C)O (some centres not stated)	-16.5% (inactive)	–
Cc1ccc(-n2nnnc2SCC(=O)N2CCc3ccccc3C2)c(C)c1	-18.8% (inactive)	–
CCN(CC)S(=O)(=O)c1ccc(N=NC2=C(O)CC(C)(C)CC2=O)cc1	-10.4% (inactive)	–
CC1(C)C2CCC1(C)C(OC(=O)c1ccc(O)cc1)C2 (configuration not stated)	-86.9% (inactive)	–
O=C1OC(c2ccccc2)=NC12CC2c1ccc(Cl)cc1 (configuration not stated)	-72.5% (inactive)	–
O=C(Nc1nc(-c2ccccc2)c(-c2ccccc2)o1)c1ccc(F)cc1	-15.6% (inactive)	–
O=S(=O)(NCCc1csc(-c2cccnc2)n1)c1ccc(Cl)s1	-65.2% (inactive)	–

SMILES	growth rescue activity (at 19.5 µM (top of the series))	also measured
CC(=O)NC(c1ccc(C)cc1)c1cc([N+](=O)[O-])c2cccnc2c1O (configuration not stated)	61% (inactive)	–
Cc1cc(/C=C2\SC(=S)N(C)C2=O)c(C)n1-c1ccc(O)cc1	-39.6% (inactive)	–
Oc1cccc(/C=N/N(Cc2ccccc2)c2ccccc2)c1	-91.5% (inactive)	–
Clc1ccccc1CN(Cc1ccco1)Cc1nnnn1C1CCCC1	-4.89% (inactive)	–
COc1ccc(C2=CC(=O)C[C@H](c3ccc4c(c3)OCO4)C2)cc1	89.7% (inactive)	–
Cc1nc(Sc2ccccc2)c(C#N)c(C)c1[N+](=O)[O-]	147% (inactive)	–
COc1ccc2c(c1)OC[C@H]1[C@H]2N2C(=O)c3cc(C)ccc3NC(=O)[C@@]2(C)[C@H]1c1ccccc1	122% (inactive)	–
COc1ccc(N(C(=O)c2ccncc2)S(=O)(=O)c2ccccc2)cc1	-61.4% (inactive)	–
C=CCc1cccc(C=Nc2cc(Br)ccc2O)c1O	-45% (inactive)	–
Cc1nc2ccc(C(=O)NCc3ccc4c(c3)OCO4)cc2s1	-2.94% (inactive)	–
COc1ccc(-c2nc(N)sc2C2(O)C(=O)Nc3c(Br)cc(F)cc32)cc1OC (configuration not stated)	0.392% (inactive)	–
O=C(CCl)NCCCCCCCCCNC(=O)CCl	8.47% (inactive)	–
CCCn1nc(C(=O)N2CCN(S(=O)(=O)c3ccc(C)c(C)c3)CC2)c2ccccc2c1=O	-50.4% (inactive)	–
Cc1cccc2sc(NNC(=O)c3ccc(S(=O)(=O)N4CCCC(C)C4)cc3)nc12 (configuration not stated)	-51.9% (inactive)	–
CN(C(=O)COC(=O)c1ccc([N+](=O)[O-])cc1Cl)C1CCCCC1	139% (inactive)	–
CCc1c(C2(O)CCCCC2)[nH]c2ccc(C(F)(F)F)cc12	–	growth rescue activity (at 6.8 µM (top of the series)): 85.9% (inactive)
CCc1sc(C(=O)Nc2nc(-c3ccccn3)cs2)cc1C	-81% (inactive)	–
COC(OC)c1ccc(C#N)c(SCc2ccccc2)n1	-28.8% (inactive)	–
O=S(=O)(Nc1ccccc1)c1ccc(Oc2ncc(C(F)(F)F)cc2Cl)cc1	–	growth rescue activity (at 2.1 µM (top of the series)): -15.3% (inactive)
O=[N+]([O-])c1cccc(C=NNc2ccc3ccccc3n2)c1O	-79.2% (inactive)	–
CCc1cc(-c2[nH]ncc2-c2ccc([N+](=O)[O-])cc2)c(O)cc1OC	-43.8% (inactive)	–
O=C1c2cc(F)ccc2-n2c1nc1ccccc1c2=O	-16.1% (inactive)	–
O=C(c1cccs1)c1no[n+]([O-])c1C(=O)c1cccs1	-87.1% (inactive)	–

SMILES	growth rescue activity (at 19.5 µM (top of the series))	also measured
CC(=O)c1c(O)ccc2c(-c3ccccc3)cc(=O)oc12	-69.1% (inactive)	–
O=C(O)CSc1cc(NS(=O)(=O)c2ccc(Cl)cc2)c2ccccc2c1O	-5.81% (inactive)	–
O=c1c2ccccc2c(-c2ccc(O)cc2)nn1-c1cccc(C(F)(F)F)c1	-88.1% (inactive)	–
CC1(S(=O)(=O)O)CC(=O)c2ccccc2C1=O (configuration not stated)	-12.1% (inactive)	–
Cc1cccc(NC(=S)NC(C)CCc2ccccc2)c1 (configuration not stated)	-40.4% (inactive)	–
O=C1OCC(CO)(CO)N=C1NNc1ccc(Cl)c(Cl)c1	-52.3% (inactive)	–
CC[n+]1c(/C=C/C=C/c2ccc(N(C)C)cc2)sc2ccccc21	-38.5% (inactive)	–
CC(=O)NC(=S)NNC(=O)C(c1ccccc1)c1ccccc1	-30.2% (inactive)	–
C=C1C(=O)C23CCC4C(C)(C(=O)OC)CCCC4(C)C2CCC1(O)C3 (configuration not stated)	–	growth rescue activity (at 2.1 µM (top of the series)): -9.52% (inactive)
COc1cccc(/C=N/NC(=O)c2nc(-c3ccccc3)cc(-c3ccccc3)n2)c1O	-39.2% (inactive)	–
Nc1cc2c3ccccc3ccc2c2ccccc12	-51.9% (inactive)	–
Cn1c(CNc2ccccc2O)nc2ccccc21	-50% (inactive)	–
N#Cc1c(-c2ccc(Cl)cc2)n(O)c2ccccc12	-88.7% (inactive)	–
CCCCNc1c(-c2ccc(-c3ccc(OC)cc3)c(OC)c2)nc2ccccn12	-84.6% (inactive)	–
O=C(NCc1ccccc1)c1ccc2nccnc2c1	17.6% (inactive)	–
O=C(NCCC(=O)N1CCN(c2ccccc2O)CC1)c1ccc(Br)cc1	-9.2% (inactive)	–
O=C1C=C(NCCc2cc(Br)c(O)c(Br)c2)C(=O)c2ncccc21	30.5% (inactive)	–
CC1(C)CC(=O)C(C2C3=C(CC(C)(C)CC3=O)Oc3c(Br)cc(Br)cc32)=C(O)C1 (configuration not stated)	–	growth rescue activity (at 6.8 µM (top of the series)): -21.5% (inactive)
O=C(c1ccc(-c2ccccc2)c(F)c1)C1CCCN(C(=O)c2cncs2)C1 (configuration not stated)	-45.2% (inactive)	–
CN(C)c1nc(-c2ccccn2)nnc1-c1ccccc1	-23.6% (inactive)	–
O=C1c2cccc3cc([N+](=O)[O-])cc(c23)C(=O)N1CC1CCCO1 (configuration not stated)	23.2% (inactive)	–
COc1cccc(C(=O)Nc2sc(C(C)C)cc2C(N)=O)c1OC	93.8% (inactive)	–
CC(=O)Nc1cccc(NC(=O)CSc2ccc(-c3ccccn3)nn2)c1	-39.9% (inactive)	–
